Results taken from PMC4508061, “Selectivity Profiling and Biological Activity of Novel β-Carbolines as Potent and Selective DYRK1 Kinase Inhibitors” (PLoS ONE, 2015).

Tests used:
Assay in all cases: ProQinase radiometric kinase panel
Conditions in all cases: mean of 2 exp.
BMX = BMX (Homo sapiens, UniProt P51813)
MEKK2 = MEKK2 (Homo sapiens, UniProt Q9Y2U5)
TEC = TEC (Homo sapiens, UniProt P42680)
BRK = BRK (Homo sapiens, UniProt Q13882)
RIPK2 = RIPK2 (Homo sapiens, UniProt O43353)
FES = FES (Homo sapiens, UniProt P07332)
PAK3 = PAK3 (Homo sapiens, UniProt O75914)
Sequence of PAK3 (O75914 whole entry): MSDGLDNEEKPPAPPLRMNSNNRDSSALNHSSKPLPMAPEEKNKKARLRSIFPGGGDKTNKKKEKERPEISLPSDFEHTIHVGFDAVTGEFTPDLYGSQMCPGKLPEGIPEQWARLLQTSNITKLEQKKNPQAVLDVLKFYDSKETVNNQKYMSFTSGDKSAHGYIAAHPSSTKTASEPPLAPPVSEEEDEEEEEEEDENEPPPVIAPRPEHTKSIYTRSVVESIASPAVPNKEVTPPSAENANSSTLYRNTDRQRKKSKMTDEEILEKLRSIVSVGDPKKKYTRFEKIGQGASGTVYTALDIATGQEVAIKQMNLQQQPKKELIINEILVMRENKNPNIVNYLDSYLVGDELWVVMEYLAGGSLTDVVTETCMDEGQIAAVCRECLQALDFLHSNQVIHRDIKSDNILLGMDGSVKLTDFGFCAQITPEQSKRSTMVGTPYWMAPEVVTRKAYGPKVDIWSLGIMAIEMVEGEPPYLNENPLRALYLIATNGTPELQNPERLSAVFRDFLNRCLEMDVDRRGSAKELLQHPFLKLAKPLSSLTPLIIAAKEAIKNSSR

RON = RON (Homo sapiens, UniProt Q04912)
RAF1 (Y340D/Y341D) = RAF1 (Y340D/Y341D) (Homo sapiens, UniProt P04049, Y340D/Y341D)
GRK4 = GRK4 (Homo sapiens, UniProt P32298)
PRK1 = PRK1 (Homo sapiens, UniProt Q16512)
WEE1 = WEE1 (Homo sapiens, UniProt P30291)
ACV-R2A = ACV-R2A (Homo sapiens, UniProt P27037)
TGFB-R2 = TGFB-R2 (Homo sapiens, UniProt P37173)
HIPK1 = HIPK1 (Homo sapiens, UniProt Q86Z02)
EPHA3 = EPHA3 (Homo sapiens, UniProt P29320)
SLK = SLK (Homo sapiens, UniProt Q9H2G2)
MAP4K2 = MAP4K2 (Homo sapiens, UniProt Q12851)
IKK-alpha = IKK-alpha (Homo sapiens, UniProt O15111)
ROCK1 = ROCK1 (Homo sapiens, UniProt Q13464)
Sequence of ROCK1 (Q13464 whole entry): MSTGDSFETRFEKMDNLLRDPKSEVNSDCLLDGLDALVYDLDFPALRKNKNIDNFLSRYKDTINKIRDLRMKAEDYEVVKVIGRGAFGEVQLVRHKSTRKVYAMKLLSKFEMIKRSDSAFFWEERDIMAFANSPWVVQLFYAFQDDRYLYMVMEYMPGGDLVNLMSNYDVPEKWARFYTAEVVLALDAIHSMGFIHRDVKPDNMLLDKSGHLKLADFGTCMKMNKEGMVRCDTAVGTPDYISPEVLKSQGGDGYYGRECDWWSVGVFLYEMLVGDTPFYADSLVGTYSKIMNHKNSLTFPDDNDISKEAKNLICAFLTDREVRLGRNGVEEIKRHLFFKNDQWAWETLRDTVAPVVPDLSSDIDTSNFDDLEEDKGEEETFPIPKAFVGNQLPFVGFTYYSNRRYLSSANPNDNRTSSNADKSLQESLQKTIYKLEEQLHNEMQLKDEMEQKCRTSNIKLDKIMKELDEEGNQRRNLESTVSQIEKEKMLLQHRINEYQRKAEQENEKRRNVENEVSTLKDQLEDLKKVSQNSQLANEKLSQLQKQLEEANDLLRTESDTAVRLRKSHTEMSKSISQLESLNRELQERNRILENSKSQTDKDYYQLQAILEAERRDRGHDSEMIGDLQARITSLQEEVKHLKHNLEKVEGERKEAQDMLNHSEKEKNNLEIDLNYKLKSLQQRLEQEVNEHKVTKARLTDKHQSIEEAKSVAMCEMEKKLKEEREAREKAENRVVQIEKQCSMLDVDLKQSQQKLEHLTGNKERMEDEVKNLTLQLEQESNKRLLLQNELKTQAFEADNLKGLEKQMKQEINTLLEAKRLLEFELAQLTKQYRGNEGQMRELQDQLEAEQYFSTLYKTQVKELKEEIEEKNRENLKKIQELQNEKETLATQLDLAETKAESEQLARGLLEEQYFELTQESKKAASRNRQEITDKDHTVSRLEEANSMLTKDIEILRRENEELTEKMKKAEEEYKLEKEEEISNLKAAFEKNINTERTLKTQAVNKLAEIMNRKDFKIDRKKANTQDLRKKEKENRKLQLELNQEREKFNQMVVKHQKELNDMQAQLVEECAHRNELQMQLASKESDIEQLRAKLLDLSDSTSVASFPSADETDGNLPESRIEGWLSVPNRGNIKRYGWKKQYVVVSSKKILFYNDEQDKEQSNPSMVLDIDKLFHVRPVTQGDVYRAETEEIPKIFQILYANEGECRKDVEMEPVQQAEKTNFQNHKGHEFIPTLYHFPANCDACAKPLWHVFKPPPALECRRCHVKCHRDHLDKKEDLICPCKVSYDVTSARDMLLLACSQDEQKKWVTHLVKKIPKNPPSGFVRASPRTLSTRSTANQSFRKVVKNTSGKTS

RPS6KA2 = RPS6KA2 (Homo sapiens, UniProt Q15349)
MST3 = MST3 (Homo sapiens, UniProt Q9Y6E0)
Sequence of MST3 (Q9Y6E0 whole entry): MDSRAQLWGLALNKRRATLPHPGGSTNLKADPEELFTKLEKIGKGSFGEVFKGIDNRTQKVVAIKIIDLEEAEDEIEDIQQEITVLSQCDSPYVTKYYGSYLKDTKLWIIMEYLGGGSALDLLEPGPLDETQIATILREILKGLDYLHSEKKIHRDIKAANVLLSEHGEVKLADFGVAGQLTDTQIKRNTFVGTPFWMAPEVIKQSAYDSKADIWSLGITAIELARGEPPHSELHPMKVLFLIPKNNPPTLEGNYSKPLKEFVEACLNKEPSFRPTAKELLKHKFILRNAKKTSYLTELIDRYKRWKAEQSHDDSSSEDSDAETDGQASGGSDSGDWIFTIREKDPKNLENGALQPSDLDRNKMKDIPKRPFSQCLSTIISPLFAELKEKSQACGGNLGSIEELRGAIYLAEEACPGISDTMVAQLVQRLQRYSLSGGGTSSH

ZAK = ZAK (Homo sapiens, UniProt Q9NYL2)
IRAK1 = IRAK1 (Homo sapiens, UniProt P51617)
PAK4 = PAK4 (Homo sapiens, UniProt O96013)
Sequence of PAK4 (O96013 whole entry): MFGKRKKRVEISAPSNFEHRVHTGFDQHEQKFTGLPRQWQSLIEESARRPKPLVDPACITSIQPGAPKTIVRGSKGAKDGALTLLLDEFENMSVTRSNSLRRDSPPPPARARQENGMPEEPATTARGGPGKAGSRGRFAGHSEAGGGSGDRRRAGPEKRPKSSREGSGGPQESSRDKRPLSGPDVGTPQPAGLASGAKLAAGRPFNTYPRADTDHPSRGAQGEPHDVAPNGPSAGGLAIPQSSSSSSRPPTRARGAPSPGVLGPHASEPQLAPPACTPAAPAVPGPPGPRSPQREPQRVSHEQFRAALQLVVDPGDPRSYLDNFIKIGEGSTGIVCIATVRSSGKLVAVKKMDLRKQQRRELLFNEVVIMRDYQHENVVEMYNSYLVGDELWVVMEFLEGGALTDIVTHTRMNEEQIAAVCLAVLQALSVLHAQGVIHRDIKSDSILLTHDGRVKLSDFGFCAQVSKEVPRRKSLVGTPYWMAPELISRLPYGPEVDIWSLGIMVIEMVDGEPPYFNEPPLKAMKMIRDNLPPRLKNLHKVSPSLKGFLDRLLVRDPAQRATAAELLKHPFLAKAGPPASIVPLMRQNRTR

RPS6KA6 = RPS6KA6 (Homo sapiens, UniProt Q9UK32)
YES = YES (Homo sapiens, UniProt P07947)
GRK5 = GRK5 (Homo sapiens, UniProt P34947)
AKT1 = AKT1 (Homo sapiens, UniProt P31749)
CAMK1D = CAMK1D (Homo sapiens, UniProt Q8IU85)
MAP3K11 = MAP3K11 (Homo sapiens, UniProt Q16584)
LTK = LTK (Homo sapiens, UniProt P29376)
mTOR = mTOR (Homo sapiens, UniProt P42345)
MARK3 = MARK3 (Homo sapiens, UniProt P27448)
TTK = TTK (Homo sapiens, UniProt P33981)
Sequence of TTK (P33981 whole entry): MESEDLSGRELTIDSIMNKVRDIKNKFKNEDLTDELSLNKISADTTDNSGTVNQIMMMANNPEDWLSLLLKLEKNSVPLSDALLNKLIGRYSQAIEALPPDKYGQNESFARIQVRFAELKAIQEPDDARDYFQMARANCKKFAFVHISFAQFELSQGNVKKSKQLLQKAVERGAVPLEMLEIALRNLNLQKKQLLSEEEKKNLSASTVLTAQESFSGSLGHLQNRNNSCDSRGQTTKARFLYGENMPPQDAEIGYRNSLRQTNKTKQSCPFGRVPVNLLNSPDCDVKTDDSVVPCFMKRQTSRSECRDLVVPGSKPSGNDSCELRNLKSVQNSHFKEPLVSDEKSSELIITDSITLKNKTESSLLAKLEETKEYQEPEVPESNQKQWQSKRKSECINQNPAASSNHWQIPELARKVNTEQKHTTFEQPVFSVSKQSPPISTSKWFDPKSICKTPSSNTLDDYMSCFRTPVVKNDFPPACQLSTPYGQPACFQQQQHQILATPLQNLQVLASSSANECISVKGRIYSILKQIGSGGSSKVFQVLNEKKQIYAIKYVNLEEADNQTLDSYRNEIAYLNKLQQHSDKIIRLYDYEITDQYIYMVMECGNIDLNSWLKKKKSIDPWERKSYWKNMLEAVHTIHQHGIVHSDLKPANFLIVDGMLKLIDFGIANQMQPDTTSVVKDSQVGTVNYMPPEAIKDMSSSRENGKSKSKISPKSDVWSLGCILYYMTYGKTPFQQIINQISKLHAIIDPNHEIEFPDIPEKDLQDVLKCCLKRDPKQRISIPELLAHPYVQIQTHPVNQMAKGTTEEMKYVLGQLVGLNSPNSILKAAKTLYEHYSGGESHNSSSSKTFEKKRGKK

MAP3K9 = MAP3K9 (Homo sapiens, UniProt P80192)
CHK2 = CHK2 (Homo sapiens, UniProt O96017)
HRI = HRI (Homo sapiens, UniProt Q9BQI3)
PRKG2 = PRKG2 (Homo sapiens, UniProt Q13237)
Sequence of PRKG2 (Q13237 whole entry): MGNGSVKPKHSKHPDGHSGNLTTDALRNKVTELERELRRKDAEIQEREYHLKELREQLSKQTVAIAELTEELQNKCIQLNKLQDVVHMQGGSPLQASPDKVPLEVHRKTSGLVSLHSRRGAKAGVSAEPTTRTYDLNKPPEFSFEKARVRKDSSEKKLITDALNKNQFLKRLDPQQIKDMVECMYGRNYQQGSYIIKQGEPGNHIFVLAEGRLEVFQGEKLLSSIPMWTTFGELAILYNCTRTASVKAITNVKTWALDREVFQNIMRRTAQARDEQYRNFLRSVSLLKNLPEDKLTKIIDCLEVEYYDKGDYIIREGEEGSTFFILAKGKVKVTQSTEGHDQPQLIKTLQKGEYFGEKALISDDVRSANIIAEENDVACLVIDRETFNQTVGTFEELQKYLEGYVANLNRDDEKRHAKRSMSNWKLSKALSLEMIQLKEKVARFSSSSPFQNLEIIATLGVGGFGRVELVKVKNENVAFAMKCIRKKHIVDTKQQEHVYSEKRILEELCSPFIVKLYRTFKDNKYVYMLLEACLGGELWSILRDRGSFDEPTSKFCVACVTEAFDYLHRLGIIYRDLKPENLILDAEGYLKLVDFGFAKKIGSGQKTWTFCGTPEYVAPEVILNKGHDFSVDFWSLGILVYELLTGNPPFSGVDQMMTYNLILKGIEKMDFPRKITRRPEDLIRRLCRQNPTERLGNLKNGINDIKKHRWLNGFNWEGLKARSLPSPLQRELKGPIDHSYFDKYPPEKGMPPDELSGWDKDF

Sequence of BRK (Q13882 whole entry): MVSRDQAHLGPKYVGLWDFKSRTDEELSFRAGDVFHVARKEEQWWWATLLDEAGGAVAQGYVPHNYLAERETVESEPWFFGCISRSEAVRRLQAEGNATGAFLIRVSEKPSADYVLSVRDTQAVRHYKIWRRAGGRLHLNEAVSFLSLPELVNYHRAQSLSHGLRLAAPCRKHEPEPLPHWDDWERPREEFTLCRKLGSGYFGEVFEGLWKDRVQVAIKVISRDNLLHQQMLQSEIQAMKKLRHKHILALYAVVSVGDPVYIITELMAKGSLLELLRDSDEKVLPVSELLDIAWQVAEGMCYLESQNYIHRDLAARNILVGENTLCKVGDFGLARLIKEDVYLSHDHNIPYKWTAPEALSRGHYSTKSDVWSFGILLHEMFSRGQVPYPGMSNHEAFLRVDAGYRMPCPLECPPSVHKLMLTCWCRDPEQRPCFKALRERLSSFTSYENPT

residual activity at 1 µM, Mean (BMX): 79 % of control
residual activity at 1 µM, Mean (MEKK2): 105 % of control
residual activity at 1 µM, Mean (TEC): 93 % of control
residual activity at 1 µM, Mean (BRK): 97 % of control
residual activity at 1 µM, Mean (RIPK2): 94 % of control
residual activity at 1 µM, Mean (FES): 93 % of control
residual activity at 1 µM, Mean (PAK3): 95 % of control
residual activity at 1 µM, Mean (RON): 96 % of control
residual activity at 1 µM, Mean (RAF1 (Y340D/Y341D)): 99 % of control
residual activity at 1 µM, Mean (GRK4): 49 % of control
residual activity at 1 µM, Mean (PRK1): 94 % of control
residual activity at 1 µM, Mean (WEE1): 100 % of control
residual activity at 1 µM, Mean (ACV-R2A): 97 % of control
residual activity at 1 µM, Mean (TGFB-R2): 83 % of control
residual activity at 1 µM, Mean (HIPK1): 91 % of control
residual activity at 1 µM, Mean (EPHA3): 105 % of control
residual activity at 1 µM, Mean (SLK): 99 % of control
residual activity at 1 µM, Mean (MAP4K2): 93 % of control
residual activity at 1 µM, Mean (IKK-alpha): 60 % of control
residual activity at 1 µM, Mean (ROCK1): 73 % of control
residual activity at 1 µM, Mean (RPS6KA2): 97 % of control
residual activity at 1 µM, Mean (MST3): 104 % of control
residual activity at 1 µM, Mean (ZAK): 94 % of control
residual activity at 1 µM, Mean (IRAK1): 95 % of control
residual activity at 1 µM, Mean (PAK4): 94 % of control
residual activity at 1 µM, Mean (RPS6KA6): 98 % of control
residual activity at 1 µM, Mean (YES): 83 % of control
residual activity at 1 µM, Mean (GRK5): 95 % of control
residual activity at 1 µM, Mean (AKT1): 102 % of control
residual activity at 1 µM, Mean (CAMK1D): 102 % of control
residual activity at 1 µM, Mean (MAP3K11): 98 % of control
residual activity at 1 µM, Mean (LTK): 99 % of control
residual activity at 1 µM, Mean (mTOR): 90 % of control
residual activity at 1 µM, Mean (MARK3): 100 % of control
residual activity at 1 µM, Mean (TTK): 91 % of control
residual activity at 1 µM, Mean (MAP3K9): 100 % of control
residual activity at 1 µM, Mean (CHK2): 102 % of control
residual activity at 1 µM, Mean (HRI): 101 % of control
residual activity at 1 µM, Mean (PRKG2): 85 % of control
SMILES: COc1ccc2c3ccnc(Cl)c3n(CC#N)c2c1 [AnnH75]
